What was measured:
[1] = system: dogs; experiment: Electrophysiological variables (AERP, VERP, repolarization periods) in halothane-anesthetized dogs; format: in vivo, dog; details: 3 mg/kg
Protocol: Animals were obtained through Kitayama Labes Co., Ltd. (Nagano, Japan). All experiments were approved by the Toho University Animal Care and User Committee (No. 18-51-395) and performed according to the Guideline for the Care and Use of Laboratory Animals of Toho University.
The dogs were initially anesthetized with thiopental sodium (30 mg/kg, i.v.). After intubation with a cuffed endotracheal tube, anesthesia was maintained by inhalation of halothane (1% v/v) vaporized in oxygen with a volume-limited ventilator (SN-480-3; Shinano Manufacturing Co., Ltd., Tokyo, Japan). Tidal volume and respiratory rate were set at 20 mL/kg and 15 breaths/min, respectively. […] To prevent blood clotting, heparin calcium (100 IU/kg) was intravenously administered through a flush line of the catheter sheath placed at the right femoral vein.
The lead II electrocardiogram was obtained from the limb electrodes. The P-wave duration, PR interval, QRS width and QT interval were measured, and QT interval was corrected with Van de Water's formula: QTc=QT-0.087×(RR-1,000) with RR given in ms. The J-Tpeak and Tpeak-Tend were measured as follows. When the end of T-wave was obscure, we used the monophasic action potential (MAP) signal as a guide to estimate the end. The J-Tpeak was corrected for the heart rate with a coefficient as previously described (J-Tpeakc=J-Tpeak/RR^0.58 with RR given in seconds).
A standard 6-French, quad-polar electrodes catheter (Cordis-Webster Inc., Baldwin Park, Calif., USA) was positioned at the non-coronary cusp of the aortic valve through the left femoral artery to obtain the His bundle electrogram. Another 6-French, quad-polar electrode catheter (Cordis-Webster Inc.) was positioned at the sinus nodal areas of the right atrium through the right femoral vein to electrically pace and to record the local electrogram. A bi-directional steerable MAP recording/pacing combination catheter (1675P; EP Technologies, Inc., CA, USA) was positioned at the endocardium of the interventricular septum in the right ventricle through the left femoral vein to obtain MAP signals. The signals were amplified with a DC preamplifier (model 300; EP Technologies, Inc.). The duration of the MAP signals was measured as an interval, along a horizontal line corresponding to the diastolic baseline, from the MAP upstroke to the desired repolarization level. The interval (ms) at 90% repolarization was defined as MAP90.
The heart was electrically driven with a cardiac stimulator (SEC-3102; Nihon Kohden Co., Ltd.) via the pacing electrodes of the combination catheter placed in the right ventricle or the electrodes of the catheter placed at the right atrium. The stimulation pulses were rectangular in shape, 1-2 V (about twice the threshold voltage) and 1 ms duration. The MAP90 of the ventricle was measured during sinus rhythm (MAP90(sinus)) and at a pacing cycle length of 400 ms (MAP90(CL400)) and 300 ms (MAP90(CL300)). The atrial effective refractory period (AERP) and ventricular effective refractory period (VERP) were assessed with the programmed electrical stimulation. The pacing protocol consisted of 5 beats of basal stimuli in a cycle length of 400 ms followed by an extra stimulus of various coupling intervals. Starting in the late diastole, the coupling interval was shortened in 5-ms decrements until the additional stimulus could no longer elicit a response. The AERP and VERP were defined as the shortest coupling interval that could produce a response. The duration of the terminal repolarization period of the ventricle, reflecting phase-3 repolarization time of the action potential, was calculated by the difference between the MAP90(CL400) and VERP (terminal repolarization period=MAP90(CL400)−VERP) at the same site to estimate the extent of electrical vulnerability of the ventricular muscle.

[2] = system: H9c2 cells; experiment: Reduction of intracellular ATP (Mitochondrial ToxGlo) in differentiated H9c2 cells; format: cell-based; details: Rattus norvegicus; H9c2 cells, 6 h exposure; read-out: decrease in intracellular ATP levels IC50
Protocol: H9c2 cell line was purchased from American Tissue Type Collection (ATCC) (Manassas, Va.). The cells were cultured in low-glucose DMEM growth media (Cat No: 31600, Thermo Fisher Scientific, Waltham, Mass.) supplemented with 1.5 g/L sodium bicarbonate, 25 mM HEPES, 10% fetal bovine serum (FBS) (GE Healthcare, Singapore), 100 units/mL penicillin, 100 μg/mL streptomycin and 250 ng/mL amphotericin B in 75-cm^2 tissue-culture flasks at 37° C. in a humidified atmosphere of 5% CO2. Cells were fed every 2-3 days and sub-cultured once 70-80% confluency was achieved to prevent the loss of differentiation potential. For differentiation, H9c2 cells were seeded at a density of 100,000 cells/well in 12-well plates. The cells were maintained for 1 day in low-glucose high-serum growth media to allow for cell attachment. Subsequently, cells were differentiated using 1 μM ATRA.
H9c2 cells were seeded in a white chimney plate and differentiated. The media was changed to DMEM with 10 mM galactose, 2 mM glutamine (6 mM final), 5 mM HEPES, 1 mM sodium pyruvate, 100 U/mL penicillin, 100 μg/mL streptomycin, 0.25 μg/mL amphotericin B, 1% FBS, 1× insulin-transferrin-selenium and 1 μM ATRA for 48 h to overcome the Crabtree effect. […] The cytotoxicity and intracellular ATP content were measured concurrently using Mitochondrial ToxGlo™ kit (Promega, Madison, Wis.) using manufacturer's protocol. Mitochondrial ToxGlo™ assay measures the cell viability using fluorogenic peptide bis-alanine-alanine-phenylalanine-R110 (bis-AAF-R110). Bis-AAF-R110 is a selective peptide that measures protease activity in dead cells since it is impermeable to live cells. Here, the fluorescence derived from metabolized bis-AAF-R110 was measured at different concentrations of the test compounds and compared to control. As the concentration of cytotoxic compound increases, the number of dead cells increases, leading to a higher fluorescence signal. ATP is measured by adding the ATP Detection Reagent, resulting in cell lysis and generation of a luminescent signal proportional to the amount of ATP present. […]

Row | SMILES | ΔAERP ([1]; 20 min after administration) | ΔVERP ([1]; 20 min after administration) | ΔJ-Tpeakc (early repolarization period) ([1]; 60 min after administration) | ΔTRP (terminal repolarization period) ([1]; 60 min after administration) | ΔTpeak-Tend (late repolarization period) ([1]; 60 min after administration) | IC50 [2] | ΔAERP ([1]; 30 min after administration) | ΔVERP ([1]; 30 min after administration) | ΔAERP ([1]; 45 min after administration) | ΔJ-Tpeakc (early repolarization period) ([1]; 45 min after administration) | ΔTRP (terminal repolarization period) ([1]; 45 min after administration) | ΔTpeak-Tend (late repolarization period) ([1]; 45 min after administration) | ΔVERP ([1]; 45 min after administration)
1 | CCCCc1oc2ccc(NS(C)(=O)=O)cc2c1C(=O)c1ccc(OCCCN(CCCC)CCCC)cc1.Cl [Dronedarone] | +43 | +23 | +7 | +11 | +25 | 3.1 µM |  |  |  |  |  |  | 
2 | Cl.[2H]c1c(NS(C)(=O)=O)c([2H])c2c(C(=O)c3ccc(OCCCN(CCCC)CCCC)cc3)c(CCCC)oc2c1[2H] [Poyendarone, Methanesulfonamide, N-(2-butyl-3-(4-(3-(dibutylamino)propoxy)benzoyl)-1-benzo(4,6,7-d3)-furan-5-yl)hydrochloride] |  |  |  |  |  | 41.5 µM | +25 | +14 | +34 | −5 | −1.5 | +1 | +13

From patent US20220267288A1, “CARDIAC THERAPEUTIC” (priority 2019, published 2022)
